Measured values as given in PubChem BioAssay (NCI).
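A five-concentration, 48-hour dose response in 96-well plates underlies each endpoint, interpolated linearly between surrounding concentrations. The concentration for full growth arrest is given as TGI.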

Tests used:
Test in all cases: growth of human tumour cells (NCI), 48 h
786-0 renal = test system: 786-0 renal
RXF-631 renal = test system: RXF-631 renal
OVCAR-5 ovarian = test system: OVCAR-5 ovarian
TK-10 renal = test system: TK-10 renal
SN12C renal = test system: SN12C renal
HOP-92 NSCLC = test system: HOP-92 NSCLC
DMS 114 small cell lung = test system: DMS 114 small cell lung
OVCAR-8 ovarian = test system: OVCAR-8 ovarian
UACC-257 melanoma = test system: UACC-257 melanoma
M14 melanoma = test system: M14 melanoma
SR leukemia = test system: SR leukemia
SW-620 colon = test system: SW-620 colon
A549 NSCLC = test system: A549 NSCLC
HOP-18 NSCLC = test system: HOP-18 NSCLC
M19-MEL melanoma = test system: M19-MEL melanoma
ACHN renal = test system: ACHN renal
UACC-62 melanoma = test system: UACC-62 melanoma
CCRF-CEM leukemia = test system: CCRF-CEM leukemia
NCI-H460 lung = test system: NCI-H460 lung
DLD-1 colon = test system: DLD-1 colon
HCC-2998 colon = test system: HCC-2998 colon
HOP-62 NSCLC = test system: HOP-62 NSCLC
SF-295 CNS = test system: SF-295 CNS
NCI-H226 lung = test system: NCI-H226 lung
NCI-H23 lung = test system: NCI-H23 lung
SF-539 CNS = test system: SF-539 CNS
KM20L2 colon = test system: KM20L2 colon
IGROV1 ovarian = test system: IGROV1 ovarian
RXF 393 renal = test system: RXF 393 renal
CAKI-1 renal = test system: CAKI-1 renal
SK-MEL-5 melanoma = test system: SK-MEL-5 melanoma
SNB-75 CNS = test system: SNB-75 CNS
UO-31 renal = test system: UO-31 renal
OVCAR-3 ovarian = test system: OVCAR-3 ovarian
LXFL 529 NSCLC = test system: LXFL 529 NSCLC
SNB-78 CNS = test system: SNB-78 CNS
HCT-116 colon = test system: HCT-116 colon
HL-60(TB) leukemia = test system: HL-60(TB) leukemia
EKVX NSCLC = test system: EKVX NSCLC
SF-268 CNS = test system: SF-268 CNS
COLO 205 colon = test system: COLO 205 colon
MOLT-4 leukemia = test system: MOLT-4 leukemia
SK-MEL-28 melanoma = test system: SK-MEL-28 melanoma
RPMI-8226 leukemia = test system: RPMI-8226 leukemia
A498 renal = test system: A498 renal
MALME-3M melanoma = test system: MALME-3M melanoma
SNB-19 CNS = test system: SNB-19 CNS
HCT-15 colon = test system: HCT-15 colon
K-562 leukemia = test system: K-562 leukemia
HT29 colon = test system: HT29 colon
LOX IMVI melanoma = test system: LOX IMVI melanoma
OVCAR-4 ovarian = test system: OVCAR-4 ovarian
U251 CNS = test system: U251 CNS
SK-OV-3 ovarian = test system: SK-OV-3 ovarian
DMS 273 small cell lung = test system: DMS 273 small cell lung
XF 498 CNS = test system: XF 498 CNS
KM12 colon = test system: KM12 colon
SK-MEL-2 melanoma = test system: SK-MEL-2 melanoma
NCI-H522 lung = test system: NCI-H522 lung

Measured: TGI

N#CCN1CCOCCOCCN(CC#N)CCOCCOCC1
not listed: U251 CNS | SK-OV-3 ovarian | DMS 273 small cell lung | XF 498 CNS | KM12 colon | SK-MEL-2 melanoma | NCI-H522 lung
> 100 µM: all other assays above

O=C1[C@@H]2C3SC(c4ccccc43)[C@@H]2C(=O)N1c1ccccc1
> 83 µM: SNB-75 CNS
not listed: RXF-631 renal | OVCAR-4 ovarian
> 100 µM: all other assays above

CCc1ccc(Nc2cc(=O)[nH]c(=S)n2C)cc1
not listed: RXF-631 renal | ACHN renal | HCC-2998 colon | SK-MEL-28 melanoma
> 100 µM: all other assays above

O=P(O)(O)C1CCCC(P(=O)(O)O)N1 (stereo unspecified)
not listed: 786-0 renal | SN12C renal | SW-620 colon | HOP-18 NSCLC | UACC-62 melanoma | DLD-1 colon | HCC-2998 colon | SF-539 CNS | CAKI-1 renal | SK-MEL-5 melanoma | SNB-75 CNS | OVCAR-3 ovarian | LXFL 529 NSCLC | COLO 205 colon | RPMI-8226 leukemia | MALME-3M melanoma | HCT-15 colon | K-562 leukemia | LOX IMVI melanoma | OVCAR-4 ovarian | XF 498 CNS | SK-MEL-2 melanoma
> 100 µM: all other assays above
